This note sets out measurements from patent US5614520A, “2-arylthiazole derivatives and pharmaceutical composition thereof” (priority 1990, dated 1997).

Read-outs that look alike come from different tables or passages of the source.

The target of assay [1] is T1, xanthine oxidase (Bos taurus, UniProt P80457).
T1 construct: purchased Sigma Chemical Company; host or cells: butter milk
Briefly: In vitro determination of xanthine oxidase (XOD) inhibition. In kind it is biochemical. Particulars: xanthine oxidase from butter milk, xanthine substrate, pH 7.4, 37° C. As to the method:
(1) Preparation of test compounds:
Test compounds (compounds of Ex. No. listed in Table 1) were dissolved in dimethylsulfoxide and diluted with a 50 mM phosphate buffer to prepare aqueous solutions respectively having predetermined concentrations.
The inhibition rate was determined by the following equation: [formula]
The inhibition (%) was determined on each test compound prepared according to (1), and the IC50 value on the xanthine oxidase (XOD) inhibition was calculated from the value of inhibition.

Assay [2] concerns serum uric acid. Description: Determination of oral administration: lowering of serum uric acid in mice. The format is in vivo, ICR male mice. The following applies: for inhibition in vivo at 1 mg/kg: Mus musculus, read-out: Activity of lowering uric acid. As to the method: Test compounds suspended in a 5% gum arabic solution was forcibly administered by oral administration (compounds of Ex. No. of Table 2, dose: 1 mg/kg) to ICR male mice (age: about 7 weeks) (one group: 6 mice) by means of an oral probe. 2 hours after the administration, thoracotomy was conducted under etherization to collect blood from the heart, and serum was removed by a conventional process. The serum uric acid was measured by a biochemical automatic analyzer (Flexigem; Electro-Nucleonics, Inc.) by using a uric acid measurement kit (UA reagent; International Reagent) to determine the percentage of the lowering of uric acid. [formula]

Where [3] appears, read: ICR male mice, oral, 1 mg/kg, 2 hours after administration, serum.

T1 sequence (P80457 whole entry): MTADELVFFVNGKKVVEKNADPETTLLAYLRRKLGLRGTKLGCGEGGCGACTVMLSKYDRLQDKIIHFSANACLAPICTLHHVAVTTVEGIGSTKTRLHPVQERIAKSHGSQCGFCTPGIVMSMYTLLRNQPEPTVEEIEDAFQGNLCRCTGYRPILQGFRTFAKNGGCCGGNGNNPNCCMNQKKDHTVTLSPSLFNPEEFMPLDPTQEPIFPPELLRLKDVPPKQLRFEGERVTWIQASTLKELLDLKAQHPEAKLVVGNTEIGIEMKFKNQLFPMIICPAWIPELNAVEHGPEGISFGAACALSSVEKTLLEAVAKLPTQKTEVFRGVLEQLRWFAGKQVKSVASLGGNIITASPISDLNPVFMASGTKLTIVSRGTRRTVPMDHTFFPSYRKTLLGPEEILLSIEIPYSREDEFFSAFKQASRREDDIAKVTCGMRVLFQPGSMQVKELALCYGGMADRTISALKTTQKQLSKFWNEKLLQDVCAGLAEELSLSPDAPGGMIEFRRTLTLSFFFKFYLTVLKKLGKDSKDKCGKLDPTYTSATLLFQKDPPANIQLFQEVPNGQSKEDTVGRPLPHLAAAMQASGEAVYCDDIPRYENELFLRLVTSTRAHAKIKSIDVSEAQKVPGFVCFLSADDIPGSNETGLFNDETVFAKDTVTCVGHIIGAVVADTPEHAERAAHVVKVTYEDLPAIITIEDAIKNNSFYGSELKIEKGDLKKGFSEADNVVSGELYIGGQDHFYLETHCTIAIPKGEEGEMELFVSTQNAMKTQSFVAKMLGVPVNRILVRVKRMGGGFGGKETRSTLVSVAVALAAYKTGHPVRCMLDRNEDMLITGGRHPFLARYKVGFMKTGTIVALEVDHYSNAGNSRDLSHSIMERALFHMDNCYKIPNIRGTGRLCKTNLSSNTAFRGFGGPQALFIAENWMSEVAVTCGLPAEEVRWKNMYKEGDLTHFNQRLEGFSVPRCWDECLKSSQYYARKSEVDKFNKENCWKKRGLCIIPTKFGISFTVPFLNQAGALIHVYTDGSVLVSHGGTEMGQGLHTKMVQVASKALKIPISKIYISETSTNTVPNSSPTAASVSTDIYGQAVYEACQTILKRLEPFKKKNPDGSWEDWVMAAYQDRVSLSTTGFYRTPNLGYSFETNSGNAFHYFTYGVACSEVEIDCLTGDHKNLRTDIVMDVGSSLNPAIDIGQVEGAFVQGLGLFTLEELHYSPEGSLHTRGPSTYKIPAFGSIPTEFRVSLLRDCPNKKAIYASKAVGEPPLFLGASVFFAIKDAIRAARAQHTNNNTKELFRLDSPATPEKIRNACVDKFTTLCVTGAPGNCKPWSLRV

In assay [1], “2-(4-morpholino-3-nitrophenyl)-4-methyl-5-thiazolecarboxylic acid [Example 38]” gave an IC50 of 1.8 nM. Also, the “Activity of lowering uric acid” value in assay [2] (setting [3]) is on record as 91%. Compound `Cc1nc(-c2ccc(OC(C)C)cc2)sc1C(=O)O` [Example 2, 2-(4-isopropoxyphenyl)-4-methyl-5-thiazolecarboxylic acid] displayed an IC50 in assay [1] of 28 nM. As to `Cc1nc(-c2cccc([N+](=O)[O-])c2)sc1C(=O)O` [Example 3, 4-methyl-2-(3-nitrophenyl)-5-thiazolecarboxylic acid], half-maximal inhibition in assay [1] (IC50) was put at 14 nM. This IC50 is about 2-fold lower than that of the compound before. Same read-out and setting: to `Cc1nc(-c2ccc([N+](=O)[O-])cc2)sc1C(=O)O` [Example 4, 4-methyl-2-(4-nitrophenyl)-5-thiazolecarboxylic acid] belongs 900 nM. On to `Cc1nc(-c2ccc(OCCCC3CCCCC3)cc2)sc1C(=O)O` [Example 8, 2-(4-(3-Cyclohexylpropyloxy)phenyl)-4-methyl-5-thiazolecarboxylic acid], for which the half-inhibitory concentration (IC50) in assay [1] stood at 3.2 nM. In addition, in assay [2] (setting [3]), the inhibition in vivo at 1 mg/kg was 28%. `Cc1nc(-c2ccc(OCc3ccc(Cl)cc3)cc2)sc1C(=O)O` [Example 9, 2-(4-(4-Chlorobenzyloxy)phenyl)-4-methyl-5-thiazolecarboxylic acid] registered an IC50 in assay [1] of 17 nM. The same measure, in the same setting: to `Cc1nc(-c2ccc(OCc3ccc(F)cc3)cc2)sc1C(=O)O` [Example 10, 2-(4-(4-Fluorobenzyloxy)phenyl)-4-methyl-5-thiazolecarboxylic acid] belongs 31 nM; to `Cc1nc(-c2cccc(C(=O)O)c2)sc1C(=O)O` [Example 13, 2-(3-carboxyphenyl)-4-methyl-5-thiazolecarboxylic acid], 320 nM. In the case of `Cc1nc(-c2ccc(C(=O)Nc3ccc(Cl)cc3)cc2)sc1C(=O)O` [Example 16, 2-(4-(4-Chlorophenylcarbamoyl)phenyl)-4-methyl-5-thiazolecarboxylic acid], the inhibition in vivo at 1 mg/kg in assay [2] (po, 2 h) turned out to be 21%.

The compound `Cc1nc(-c2ccc(C(=O)N(C)c3ccc(Cl)cc3)cc2)sc1C(=O)O` [Example 17, 2-(4-(N-(4-chlorophenyl)-N-methylcarbamoyl)phenyl)-4-methyl-5-thiazolecarboxylic acid] displayed a half-inhibitory concentration (IC50) in assay [1] of 500 nM.

`Cc1nc(-c2ccc(N(C)C)cc2)sc1C(=O)O` [Example 18, 2-(4-(N,N-dimethylamino)phenyl)-4-methyl-5-thiazolecarboxylic acid] gave an IC50 in assay [1] of 43 nM. Moreover, the inhibition in vivo at 1 mg/kg in assay [2] (setting [3]) turned out to be 22%. With `Cc1nc(-c2cccc(C(=O)c3ccccc3)c2)sc1C(=O)O` [Example 19, 2-(3-Benzoylphenyl)-4-methyl-5-thiazolecarboxylic acid], inhibition in assay [1] was half-maximal at 12 nM (IC50). The same measure, in the same setting: with `O=C(O)c1sc(-c2cccc(Cl)c2)nc1O` [Example 21, 2-(3-chlorophenyl)-4-hydroxy-5-thiazolecarboxylic acid] the figure was 720 nM; with `COc1nc(-c2ccc(OC(C)C)cc2)sc1C(=O)O` [Example 23, 2-(4-isopropoxyphenyl)-4-methoxy-5-thiazolecarboxylic acid], 130 nM. Still for that read-out and setting: with `Cc1nc(-c2cc([N+](=O)[O-])ccc2Cl)sc1C(=O)O` [Example 24, 2-(2-Chloro-5-nitrophenyl)-4-methyl-5-thiazolecarboxylic acid] the figure was 67 nM. The compound `CC(=O)c1cc(-c2nc(C)c(C(=O)O)s2)ccc1O` [Example 25, 2-(3-Acetyl-4-hydroxyphenyl) -4-methyl-5-thiazolecarboxylic acid] gave an IC50 in assay [1] of 300 nM. This IC50 is about 4.5-fold higher than that of the compound before.

As to `Cc1nc(-c2cc(C(C)(C)C)c(O)c(C(C)(C)C)c2)sc1C(=O)O` [Example 29, 2-(3,5-Di-t-butyl-4-hydroxyphenyl)-4-methyl-5-thiazolecarboxylic acid], the half-inhibitory concentration (IC50) in assay [1] came out at 65 nM. Still for that read-out and setting: with `Cc1cc(-c2nc(C)c(C(=O)O)s2)cc(C)c1O` [Example 30, 2-(3,5-Dimethyl-4-hydroxyphenyl)-4-methyl-5-thiazolecarboxylic acid] the figure was 42 nM. `Cc1nc(-c2ccc(OC(C)C)c([N+](=O)[O-])c2)sc1C(=O)O` [Example 31, 2-(4-isopropoxy-3-nitrophenyl)-4-methyl-5-thiazolecarboxylic acid] registered a concentration for half-maximal inhibition (IC50) in assay [1] of 0.57 nM. Besides, the inhibition in vivo at 1 mg/kg in assay [2] (setting [3]) turned out to be 90%. For `Cc1nc(-c2ccc(OCC3CCCCC3)c([N+](=O)[O-])c2)sc1C(=O)O` [Example 32, 2-(4-Cyclohexylmethyloxy-3-nitrophenyl)-4-methyl-5-thiazolecarboxylic acid] the same measures were 0.18 nM and 48%. On the same counts, the results for `CCOc1ccc(-c2nc(C)c(C(=O)O)s2)cc1[N+](=O)[O-]` [Example 33, 2-(4-Ethoxy-3-nitrophenyl)-4-methyl-5-thiazolecarboxylic acid] are 0.36 nM and 71%.

For the compound `Cc1nc(-c2ccc(OCC(C)C)c([N+](=O)[O-])c2)sc1C(=O)O` [Example 34, 2-(4-Isobutyloxy-3-nitrophenyl)-4-methyl-5-thiazolecarboxylic acid], the IC50 in assay [1] amounted to 2.4 nM. The inhibition in vivo at 1 mg/kg in assay [2] (setting [3]) is 76%. On the same counts, the results for `Cc1nc(-c2ccc(SC(C)C)c([N+](=O)[O-])c2)sc1C(=O)O` [Example 35, 2-(4-isopropylthio-3-nitrophenyl)-4-methyl-5-thiazolecarboxylic acid] are 0.3 nM and 57%. For `Cc1nc(-c2ccc(Sc3ccc(Cl)cc3)c([N+](=O)[O-])c2)sc1C(=O)O` [Example 36, 2-(4-(4-chlrophenyl)thio-3-nitrophenyl)-4-methyl-5thiazolecarboxylic acid] the same measures were 0.02 nM and 14%. In turn, `CCN(CC)c1ccc(-c2nc(C)c(C(=O)O)s2)cc1[N+](=O)[O-]` [Example 37] showed a concentration for half-maximal inhibition (IC50) in assay [1] of 1.8 nM. The inhibition in vivo at 1 mg/kg in assay [2] (setting [3]) was determined as 74%.

For the compound `CCOCCOc1ccc(-c2nc(C)c(C(=O)O)s2)cc1[N+](=O)[O-]` [Example 39, 2-(4-(2-Ethoxyethyloxy)-3-nitrophenyl)-4-methyl-5-thiazolecarboxylic acid], 2.9 nM corresponded to half-maximal inhibition in assay [1] (IC50). For the same compound, the inhibition in vivo at 1 mg/kg in assay [2] (setting [3]) worked out at 82%. In the case of `Cc1nc(-c2ccc(OC(C)C)c([N+](=O)[O-])c2)sc1C(=O)OC(C)C` [Example 47, isopropyl 2-(4-isopropoxy-3-nitrophenyl)-4-methyl-5-thiazolecarboxylate], the inhibition in vivo at 1 mg/kg in assay [2] (setting [3]) came out at 92%. On the same count and under the same terms, to `Cc1nc(-c2ccc(OCC(C)C)c([N+](=O)[O-])c2)sc1C(=O)OCC(C)C` [Example 48, Isobutyl 2-(4-isobutyloxy-3-nitrophenyl)-4-methyl-5-thiazolecarboxylate] belongs 88%. Turning to `Cc1nc(-c2ccc(OC(C)C)c(C#N)c2)sc1C(=O)O` [Example 76, 2-(3-cyano-4-isopropoxyphenyl)-4-methyl-5-thiazolecarboxylic acid], the inhibition in vivo at 1 mg/kg in assay [2] (po, 2 h) worked out at 86%. Same read-out and setting: to `Cc1nc(-c2ccc(OCC(C)C)c(C#N)c2)sc1C(=O)O` [Example 77, 2-(3-Cyano-4-isobutyloxyphenyl)-4-methyl-5-thiazolecarboxylic acid] belongs 95%; to `Oc1ncnc2[nH]ncc12` [allopurinol, reference compound], 73%.

For orientation: IC50 means the concentration at which inhibition is half-maximal. A lower IC50 goes with inhibition by little substance.
